Results as given in PMC9127750, “Structure-based design of CDC42 effector interaction inhibitors for the treatment of cancer” (Cell reports, 2022).

System: WM3248 melanoma cells, 486 antibodies
Experiment: Reverse phase protein arrays (RPPA);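 as to RPPA ACC1.R.C: ratio of treated to vehicle (0 µM) normalized linear protein signal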;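 as to RPPA AMPK.a2 pS345.R.V: ratio of treated to vehicle (0 µM) normalized linear protein signal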;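 as to RPPA AMPKa pT172.R.C: ratio of treated to vehicle (0 µM) normalized linear protein signal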;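 as to RPPA ASNS.R.V: ratio of treated to vehicle (0 µM) normalized linear protein signal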
Assay type: cell-based, Human
Settings: 20 uM
Excerpt: Pellets were snap frozen in liquid nitrogen and shipped to MD Anderson Cancer Center core RPPA facility for RPPA analysis (Table S5). Three biological replicates for each sample were generated.
Nomenclatures on the RPPA heatmaps: name_of_antibody.species_of_antibody.status_of_antibody. V - antibody validated; C - validation of antibody in progress; Q - antibody nonspecific; E – under evaluation; antibodies raised in M - mouse, G - goat, R - rabbit, or T - rat.

CN(C)c1cccc(Nc2cc(-c3ccccc3)nc(C3CCNCC3)n2)c1 [ARN22089, N1,N1-dimethyl-N3-(6-phenyl-2-(piperidin-4-yl)pyrimidin-4-yl)benzene-1,3-diamine]
RPPA level HSP70.R.C (Average): 1.160
RPPA level Hexokinase.I.R.C (Average): 1.048
RPPA level Hexokinase.II.R.V (Average): 0.963
RPPA level Hif.1αR.C (Average): 0.904
RPPA level Histone.H3.R.V (Average): 5.173
RPPA level Histone.H3_pS10.R.V (Average): 2.026
RPPA level IDO.R.C (Average): 1.014
RPPA level IGF1R_pY1135_Y1136.R.V (Average): 0.992
RPPA level IGFBP2.R.V (Average): 0.899
RPPA level IGFBP3.M.V (Average): 0.907
RPPA level IGFRb.R.C (Average): 1.146
RPPA level IL.6.R.C (Average): 1.008
RPPA level IMP3.R.C (Average): 1.016
RPPA level INPP4b.R.C (Average): 0.905
RPPA level IR.b.R.C (Average): 1.149
RPPA level IRF.1.R.V (Average): 0.954
RPPA level IRF.3.R.V (Average): 0.948
RPPA level IRS1.R.V (Average): 1.105
RPPA level IRS2.R.C (Average): 1.211
RPPA level JAB1.M.C (Average): 0.972
RPPA level JNK2.R.V (Average): 0.925
RPPA level Jagged1.R.V (Average): 1.085
RPPA level KAP1.R.V (Average): 1.034
RPPA level KEAP1.R.V (Average): 0.960
RPPA level LAD1.R.V (Average): 1.019
RPPA level LC3A.B.R.C (Average): 1.119
RPPA level LCN2.R.V (Average): 1.461
RPPA level LDHA.R.C (Average): 0.979
RPPA level Lck.R.V (Average): 1.187
RPPA level Lyn.R.V (Average): 1.058
RPPA level MACC1.R.V (Average): 1.008
RPPA level MAPK_pT202_Y204.R.C (Average): 0.677
RPPA level MCT4.R.V (Average): 0.896
RPPA level MDM2_pS166.R.V (Average): 1.230
RPPA level MEK1.R.V (Average): 2.341
RPPA level MEK2.R.V (Average): 1.026
RPPA level MERIT40.R.C (Average): 0.895
RPPA level MERIT40_pS29.R.V (Average): 0.991
RPPA level METTL3.R.V (Average): 1.155
RPPA level MIF.R.C (Average): 0.950
RPPA level MIG6.R.V (Average): 0.989
RPPA level MITF.R.V (Average): 1.031
RPPA level MLH1.M.V (Average): 0.887
RPPA level MLKL.R.V (Average): 0.867
RPPA level MMP2.R.V (Average): 0.982
RPPA level MMP14.R.V (Average): 1.321
RPPA level MR1.M.C (Average): 1.026
RPPA level MRAP.R.C (Average): 1.126
RPPA level MSH2.R.C (Average): 0.913
RPPA level MSH6.R.C (Average): 1.164
RPPA level MSI2.R.C (Average): 1.099
RPPA level MTCO1.M.V (Average): 1.031
RPPA level MTSS1.M.C (Average): 0.981
RPPA level Mcl.1.R.V (Average): 0.838
RPPA level Melanoma.gp100.R.C (Average): 1.007
RPPA level Merlin.R.C (Average): 1.156
RPPA level Midkine.R.V (Average): 0.970
RPPA level Mitofusin.1.R.V (Average): 0.952
RPPA level Mitofusin.2.R.V (Average): 0.892
RPPA level Mnk1.R.V (Average): 0.957
RPPA level mTOR.R.V (Average): 0.941
RPPA level mTOR_pS2448.R.C (Average): 0.914
c.Jun_pS73.R.V RPPA level (Average): 0.970
c.Kit.R.V RPPA level (Average): 1.141
c.Met_pY1234_Y1235.R.V RPPA level (Average): 1.064
cGAS.R.V RPPA level (Average): 1.063
cdc2_pY15.R.C RPPA level (Average): 1.101
cdc25C.R.V RPPA level (Average): 0.883
RPPA ACC1.R.C (D.1): 0.904
RPPA ACC_pS79.R.V (D.1): 1.061
RPPA ACLY_pS455.R.V (D.1): 0.944
RPPA ACSL1.R.V (D.1): 1.054
RPPA ACVRL1.R.C (D.1): 1.049
RPPA ADAR1.M.V (D.1): 1.103
RPPA ALKBH5.R.V (D.1): 1.309
RPPA AMPK.a2_pS345.R.V (D.1): 0.933
RPPA AMPKa.R.C (D.1): 1.010
RPPA AMPKa_pT172.R.C (D.1): 1.099
RPPA ARID1A.R.C (D.1): 2.023
RPPA ASNS.R.V (D.1): 0.909
RPPA ATM.R.V (D.1): 0.752
